{"source": "patent US20150071942A1", "about": "“COMBINATION THERAPY OF ANTI-MIF ANTIBODIES AND CHEMOTHERAPEUTICS” (Baxter Healthcare SA, priority 2012, published 2015)", "key": {"[1]": {"system": "A2780 cells", "assay": "Cisplatin-dependent cell killing assay (calcein-AM, flow cytometry)", "assay_type": "cell-based, human", "conditions": "in presence of 50 nM RAM0; 48 hours; p<0.01", "description": "Data are the means±standard deviation of 9 independent experiments.\n(§1) After 48 hours of incubation cells were detached with Accutase™, labeled with calcein-AM and the level of calcein fluorescence was determined by flow cytometry. The mean fluorescence intensity in the absence of any drug or antibody was set to 1 to normalize for interassay variations. The mean fluorescent intensities were blotted against the cisplatin concentration and the half maximum active concentrations of cisplatin (EC50-values) were calculated."}, "[2]": {"system": "A2780 xenografts", "assay": "A2780 ovarian cancer xenograft in Mf1 nude mice (tumor growth)", "assay_type": "in vivo, human", "conditions": "monotherapy; RAM0 15 mg/kg every other day or cisplatin once a week", "description": "Tumor weights are indicated after treatment of inoculated mice with a human control IgG or with RAM0. Antibodies were applied either alone or in combination with cisplatin.\nThis effect is of high relevance, in particular if it can also be observed in vivo. This was explored in female Mf1 nude mice inoculated with A2780 xenografts (FIG. 5). Mice (n=10/group) were inoculated with 1*10^6 A2780 cells resuspended in matrigel. […] Cisplatin was administered once a week starting on day 2 after xenograft inoculation."}, "[3]": {"system": "A2780adr ovarian cancer cells", "assay": "Induction of apoptosis (caspase 3 activity) in doxorubicin-resistant ovarian cancer cells", "assay_type": "cell-based, human", "conditions": "agent alone; 72 hours of treatment", "description": "The percentage increased caspase 3 activity over non-treated cells is indicated. Cells were treated with a human isotype control IgG (Control IgG), anti-MIF antibody RAM0 or RAM9 alone, a combination of control IgG and doxorubicin (Control IgG+Dox), doxorubicin alone (Dox) or a combination of anti-MIF antibody and doxorubicin (RAM0+Dox or RAM9+Dox).\nThe induction of apoptosis was assessed by detection of caspase 3 activity after 72 hours of treatment."}, "[4]": {"system": "BxPC3 human pancreatic cancer cells", "assay": "Orthotopic BxPC3 xenograft model for pancreatic cancer in nude mice (survival)", "assay_type": "in vivo", "conditions": "monotherapy, gemcitabine 100 mg/kg or RAM9 60 mg/kg alone", "description": "Control groups were left untreated (left and right panel, dotted black line) or were treated with a control human monoclonal antibody (Control IgG, left panel, solid grey line) or with gemcitabine alone (Gemcitabine, left panel, solid black line). The survival curves represent the points in time when animals had to be sacrificed in accordance with UK Home Office Guidance.\nBxPC3 cells are derived from a human pancreatic adenocarcinoma and grow inside the pancreas once they have been injected orthotopically in nude mice and present as a solid tumor. CD1-Foxn1/nu nude mice are orthotopically inoculated with 1×10^6 BxPC3 cells (injection of 30 μl matrigel:tumor cell suspension into the pancreas) and the tumor was allowed to establish for 7 days. […] Additional control groups were left untreated or received a control human IgG1 monoclonal antibody. The growth of internal tumors was judged by external signs (e.g. abdominal distension causing more than 20% increase in normal body weight, or a 20% loss in normal body weight) or clinical signs (e.g. dyspnoea, jaundice, neurological signs, digestive disturbances). Animals reaching the home office limit according to the UK home office guidance were sacrificed (for animal welfare reasons). The resulting survival curve was used as primary outcome of the study."}, "[5]": {"system": "Colo357 human pancreatic cancer cell line", "assay": "Orthotopic Colo357 xenograft model for pancreatic cancer in nude mice (survival, tumor volume, microvessel density)", "assay_type": "in vivo", "conditions": "monotherapy", "description": "Control groups were left untreated or were treated with gemcitabine alone (Gem) or a control human monoclonal antibody alone (Control) or with a control human monoclonal antibody in combination with gemcitabine (Control+Gem). (A) Survival curves representing the points in time when animals had to be sacrificed in accordance with UK Home Office Guidance. (B) Tumor volume was measured in as subset of animals after animals had been sacrificed on day 20 after cell implantation. (C) After treatment, mice bearing a Colo357 xenograft were injected i.v. with the FITC-conjugated tomato lectin to visualize the blood vessels on day 12. Microvessel density was quantified using ImagePro Plus software (Image-Pro plus, Media Cybernetics) and vessel density was expressed as the mean percentage of total surface area.\nCD1-Foxn1/nu nude mice are orthotopically inoculated with 1×10^5 Colo357 cells (injection of 30 μl matrigel:tumor cell suspension into the pancreas) and the tumor was allowed to establish for 7 days. […]\nWe further analyzed […] vessel density in a small cohort of animals. […] Cell nuclei were stained using propidium iodide, and vessels were visualized using confocal microscopy (Zeiss LSM 510 META), and microvessel density was quantified using ImagePro Plus software (Image-Pro plus, Media Cybernetics). Vessel density was expressed as the mean"}, "[6]": {"system": "LnCAP cells", "assay": "Mitoxantrone-dependent cell killing assay (calcein-AM, flow cytometry)", "assay_type": "cell-based, human", "conditions": "for EC50: Homo sapiens, LNCaP, 48 h, n=10", "description": "The single values as well as the mean±standard deviation of 10 independent experiments are shown.\nas §1, with “plotted” for “blotted”, “mitoxantrone” for “cisplatin”"}}, "data": [{"smiles": "N.N.[Cl][Pt][Cl]", "note": "[Cisplatin, reference compound]", "values": [{"measurement": "EC50-value of cisplatin", "setting": "[1]", "value": "reduced significantly"}, {"measurement": "tumor growth", "setting": "[2]", "value": "did not have any effect on tumor growth"}]}, {"smiles": "COc1cccc2c1C(=O)c1c(O)c3c(c(O)c1C2=O)C[C@@](O)(C(=O)CO)C[C@@H]3O[C@H]1C[C@H](N)[C@H](O)[C@H](C)O1", "note": "[Doxorubicin, reference compound]", "values": [{"measurement": "caspase 3 activity", "setting": "[3]", "value": "significant but minor enhanced caspase 3 activity"}]}, {"smiles": "Nc1ccn([C@@H]2O[C@H](CO)[C@@H](O)C2(F)F)c(=O)n1", "note": "[Gemcitabine, reference compound]", "values": [{"measurement": "survival of the xenografted mice", "setting": "[4]", "value": "only marginally prolonged the survival"}, {"measurement": "blood vessel density in the tumour microenvironment", "setting": "[5]; day 12, FITC-conjugated tomato lectin", "value": "Neither gemcitabine nor RAM0 have a significant effect"}, {"measurement": "survival", "setting": "[5]; gemcitabine 100 mg/kg or RAM0 60 mg/kg alone, i.p., Colo357 in nude mice", "value": "only prolonged survival to a marginal and statistically insignificant extent"}]}, {"smiles": "O=C1c2c(O)ccc(O)c2C(=O)c2c(NCCNCCO)ccc(NCCNCCO)c21", "note": "[mitoxantrone, Mitoxantrone]", "values": [{"measurement": "EC50", "setting": "[6]; in presence of 100 nM RAM0", "value": 0.97, "unit": "nM"}, {"measurement": "EC50", "setting": "[6]; mitoxantrone alone", "value": 1.6, "unit": "nM"}, {"measurement": "mean EC50 of mitoxantrone", "setting": "[6]; in presence of 100 nM human isotype control antibody, compared to mitoxantrone alone", "value": "identical mean EC50"}]}]}
